Laboratory results reported in patent US12459921B2, “Isoindoline compound, preparation method, pharmaceutical composition and use thereof” (SHANGHAI INSTITUTE OF MATERIA MEDICA, CHINESE ACADEMY OF …, priority 2018, dated 2025).

Tested on: MM.1S cells
Assay: Inhibitory effect on the proliferation of MM.1S, MTS cell viability test
Type: cell-based
Conditions: Homo sapiens, MM1.S, 168 h, multiple myeloma MM.1S cells, 7 days incubation, read-out: Tumor cell inhibitory activity
Description: Method of tumor cell proliferation inhibition test: the inventors tested all the example compounds on hematologic tumor cells, multiple myeloma MMTs cell line and acute leukemia cell MV-4-11 cell line of some examples. The activity test method and results are as follows.
1. The Compound's Inhibitory Effect on the Proliferation of MM.1S, MTS Cell Viability Test:
MM.1S cells were cultured and collected with 1640 plus 10% fetal bovine serum. The cell concentration was diluted according to 7 days, and 180 ul cell suspension was added to each well of the 96-well cell plate to 20,000 cells. 20 ul of DMSO with a final concentration of 0.2% was added to the control wells. The compound was 5-fold diluted—from the 10 mM stock solution, and 20 ul was also added to each compound cell well (the final concentration of DMSO was 0.2%). The cells were placed in a 37° C., 5% CO2 incubator to incubate for 7 days. After the reaction solution was prepared according to the MTS kit (Promega, G5430), 20 μL was added to each well and incubated in a 37° C., 5% CO2 incubator for 3-4 h. Absorbance value at 490 nm was read with a microtiter plate, and 690 nm absorbance value was used as the background value. OD490-OD690 was used as the final initial data. The formula for calculating the inhibition rate of the compound is: inhibition rate=(ODDMSO-ODcompound)/(ODDMSO-Oblank)×100%. The compound's proliferation inhibition IC50 was fitted by Graph Pad Prism 5.0. The experiment was repeated three times, and the average and standard deviation was calculated according to the three parallel experiments.
Cell viability test results: **** represents cell viability IC50>20 μM, […] represents cell viability 1 μM<IC50<20 μM, ** represents cell viability 100 nM<IC50<1 μM, * represents cell viability IC50<100 nM.

Compound | IC50 [nM]
O=C1CCC(N2Cc3c(CCCCN4CCC5(CC4)OCc4ccc(Cl)cc45)cccc3C2=O)C(=O)N1 (stereo not drawn) [Example 151, 3-(4-(4-(6-chloro-3H-spiro[isobenzofuran-1,4-piperidine]-1-)butyl)-1-oxoisoindoline-2-)piperidine-2,6-dione] | 100 to 1000
N#Cc1ccccc1N1CCN(CCCCc2cccc3c2CN(C2CCC(=O)NC2=O)C3=O)CC1 (stereo not drawn) [Example 38, 2-(4-(4-(2-(2,6-dioxopiperidine-3-)-1-oxoisoindoline-4-)butyl)piperazine-1-)benzonitrile] | < 100
Cc1ccccc1N1CCN(CCCCc2cccc3c2CN(C2CCC(=O)NC2=O)C3=O)CC1 (stereo not drawn) [Example 217, 3-(1-oxo-4-(4-(4-(o-tolyl)piperazine-1-yl)butyl)isoindoline-2-yl)piperidine-2,6-dione] | < 100
N#CC1(c2cccc(F)c2)CCN(CCCOc2cccc3c2CN(C2CCC(=O)NC2=O)C3=O)CC1 (stereo not drawn) [Example 63, 1-(3-((2-(2,6-dioxopiperidine-3-)-1-oxoisoindoline-4-)oxy)propyl)-4-(3-fluorophenyl)piperidine-4-carbonitrile] | 100 to 1000
O=C1CCC(N2Cc3c(CCCCCN4CCC5(CC4)C(=O)Nc4ccc(Cl)cc45)cccc3C2=O)C(=O)N1 (stereo not drawn) [Example 133, 3-(4-(5-(5-chloro-2-oxospiro[indoline-3,4′-piperidine]-1′-)pentyl)-1-oxoisoindoline-2-)piperidine-2,6-dione] | < 100
O=C1CCC(N2Cc3c(CCCCCN4CCCc5ccccc54)cccc3C2=O)C(=O)N1 (stereo not drawn) [Example 103, 3-(4-(5-(3,4-dihydroquinoline-1(2H))pentyl)-1-oxoisoindoline-2-)piperidine-2,6-dione] | 100 to 1000
N#CC1(c2ccc(OC(F)(F)F)cc2)CCN(CCCCc2cccc3c2CN(C2CCC(=O)NC2=O)C3=O)CC1 (stereo not drawn) [Example 99, 1-(4-(2-(2,6-dioxopiperidine-3-)-1-oxoisoindoline-4-)butyl)-4-(4-trifluoromethoxyphenyl)piperidine-4-carbonitrile] | < 100
O=C1CCC(N2Cc3c(CCCCCN4CCOc5ccccc54)cccc3C2=O)C(=O)N1 (stereo not drawn) [Example 105, 3-(4-(5-(2,3-dihydro-4H-benzo[b][1,4]oxazine-4-)pentyl)-1-oxoisoindoline-2-)piperidine-2,6-dione] | 100 to 1000
N#CC1(c2ccc(OC(F)(F)F)cc2)CCN(CCCCCc2cccc3c2CN(C2CCC(=O)NC2=O)C3=O)CC1 (stereo not drawn) [Example 96, 1-(5-(2-(2,6-dioxopiperidine-3-)-1-oxoisoindoline-4-)pentyl)-4-(4-trifluoromethoxyphenyl)piperidine-4-carbonitrile] | < 100
Cc1ccc(NC(=O)[C@H](CCCc2cccc3c2CN(C2CCC(=O)NC2=O)C3=O)NC(=O)C(C)C)cc1Cl (stereo partly drawn) [Example 183, (2S)—N-(3-chloro-4-methylphenyl)-5-(2-(2,6-dioxopiperidine-3-)-1-oxoisoindoline-4-)-2-isobutyrylaminopentanamide] | < 100
N#CC1(c2ccc(Cl)cc2Cl)CCN(CCCOc2cccc3c2CN(C2CCC(=O)NC2=O)C3=O)CC1 (stereo not drawn) [Example 70, 4-(2,4-chlorophenyl)-1-(3-((2-(2,6-dioxopiperidine-3-)-1-oxoisoindoline-4-)oxy)propyl)piperidine-4-carbonitrile] | < 100
O=C1CCC(N2Cc3c(OCCCCCN4CCC5(CC4)OCc4ccc(F)cc45)cccc3C2=O)C(=O)N1 (stereo not drawn) [Example 144, 3-(4-((5-(6-fluoro-3H-spiro[isobenzofuran-1,4-piperidine]-1-)pentyl)oxy)-1-oxoisoindoline-2-)piperidine-2,6-dione] | < 100
CC(=O)N[C@@H](CCCc1cccc2c1CN(C1CCC(=O)NC1=O)C2=O)C(=O)NC(C)(C)c1ccccc1 (stereo partly drawn) [Example 188, (2S)-2-acetylamino-5-(2-(2,6-dioxopiperidine-3-)-1-oxoisoindoline-4-)-N-(2-phenylpropyl-2-)pentanamide] | 100 to 1000
O=C1CCC(N2Cc3c(CCC[C@H](NC(=O)C4CC4)C(=O)NCc4ccccc4)cccc3C2=O)C(=O)N1 (stereo partly drawn) [Example 165, N-((2S)-1-(benzylamino)-5-(2-(2,6-dioxopiperidine-3-)-1-oxoisoindoline-4-)-1-oxopentyl-2-)cyclopropylformamide] | < 100
N#CC1(c2ccccc2Cl)CCN(C(=O)CCCOc2cccc3c2CN(C2CCC(=O)NC2=O)C3=O)CC1 (stereo not drawn) [Example 82, 4-(2-chlorophenyl)-1-(4-((2-(2,6-dioxopiperidine-3-)-1-oxoisoindoline-4-)oxy)butyryl)piperidine-4-carbonitrile] | 100 to 1000
O=C1CCC(N2Cc3c(CCCCCN4CCC5(CC4)OC(=O)c4cc(Cl)ccc45)cccc3C2=O)C(=O)N1 (stereo not drawn) [Example 129, 3-(4-(5-(5-chloro-3-oxo-3H-spiro[isobenzofuran-1,4′-piperidine]-1′-)pentyl)-1-oxoisoindoline-2-)piperidine-2,6-dione] | 100 to 1000
N#CC1(c2c(F)cccc2Cl)CCN(CCCOc2cccc3c2CN(C2CCC(=O)NC2=O)C3=O)CC1 (stereo not drawn) [Example 68, 4-(2-chloro-6-fluorophenyl)-1-(3-((2-(2,6-dioxopiperidine-3-)-1-oxoisoindoline-4-)oxy)propyl)piperidine-4-carbonitrile] | < 100
N#CC1(c2cccc(Cl)c2)CCN(C(=O)CCCOc2cccc3c2CN(C2CCC(=O)NC2=O)C3=O)CC1 (stereo not drawn) [Example 83, 4-(3-chlorophenyl)-1-(4-((2-(2,6-dioxopiperidine-3-)-1-oxoisoindoline-4-)oxy)butyryl) piperidine-4-carbonitrile] | < 100
CC(=O)N[C@@H](CCCc1cccc2c1CN(C1CCC(=O)NC1=O)C2=O)C(=O)N(C)Cc1ccccc1 (stereo partly drawn) [Example 204, (2S)-2-acetylamino-N-benzyl-5-(2-(2,6-oxopiperidine-3-)-1-oxoisoindoline-4-)-N-methylpentanamide] | 1000 to 20000
O=C1CCC(N2Cc3c(OCCCCC(=O)N4CCC5(CC4)OCc4ccc(Cl)cc45)cccc3C2=O)C(=O)N1 (stereo not drawn) [Example 152, 3-(4-((5-(6-chloro-3H-spiro[isobenzofuran-1,4′-piperidine]-1′-)-5-oxopentyl)oxy)-1-oxoisoindoline-2-)piperidine-2,6-dione] | < 100
N#CC1(c2c(Cl)cccc2Cl)CCN(CCCCCc2cccc3c2CN(C2CCC(=O)NC2=O)C3=O)CC1 (stereo not drawn) [Example 250, 4-(2,6-dichlorophenyl)-1-(5-(2-(2,6-dioxopiperidin-3-yl)-1-oxoisoindoline-4-yl)pentyl)piperidine-4-carbonitrile] | 100 to 1000
O=C1CCC(N2Cc3c(CCCCCCN4CCN(c5cccc(Cl)c5Cl)CC4)cccc3C2=O)C(=O)N1 (stereo not drawn) [Example 35, 3-(4-(6-(4-(2,3-dichlorophenyl)piperazine-1-)hexyl)-1-oxoisoindoline-2-)piperidine-2,6-dione] | < 100
O=C1CCC(N2Cc3c(CCCCN4CCN(c5noc6ccccc56)CC4)cccc3C2=O)C(=O)N1 (stereo not drawn) [Example 228, 3-(4-(4-(4-(benzisoxazole-3-yl)piperazine-1-yl)butyl)-1-oxoisoindoline-2-yl)piperidine-2,6-dione] | 1000 to 20000
Cc1ccc(NC(=O)[C@H](CCCc2cccc3c2CN(C2CCC(=O)NC2=O)C3=O)NC(=O)C2CCNCC2)cc1Cl (stereo partly drawn) [Example 191, N-((2S)-1-((3-chloro-4-methylphenyl)amino)-5-(2-(2,6-dioxopiperidine-3-) -1-oxoisoindoline-4-)-1-oxopentyl-2-)piperidine-4-carboxamide] | 100 to 1000
O=C1CCC(N2Cc3c(CCCCCN4CCc5cc(Br)ccc54)cccc3C2=O)C(=O)N1 (stereo not drawn) [Example 112] | < 100
O=C1CCC(N2Cc3c(CCCCCN4CCN(c5ccc(Cl)c(Cl)c5)CC4)cccc3C2=O)C(=O)N1 (stereo not drawn) [Example 234, 3-(4-(5-(4-(3,4-dichlorophenyl)piperazine-1-yl)pentyl)-1-oxoisoindoline-2-yl)piperidine-2,6-dione] | 100 to 1000
CC(=O)N[C@@H](CCCc1cccc2c1CN(C1CCC(=O)NC1=O)C2=O)C(=O)NC(c1ccccc1)c1ccccc1 (stereo partly drawn) [Example 181, (2S)-2-acetylamino-N-benzhydryl-5-(2-(2,6-dioxopiperidine-3-)-1-oxoisoindoline-4-) pentanamide] | 100 to 1000
O=C1CCC(N2Cc3c(OCCCCCCN4CCC5(CC4)OCc4ccc(Cl)cc45)cccc3C2=O)C(=O)N1 (stereo not drawn) [Example 150, 3-(4-((6-(6-chloro-3H-spiro[isobenzofuran-1,4′-piperidine]-1′-)hexyl)oxy)-1-oxoisoindoline-2-)piperidine-2,6-dione] | < 100
O=C1CCC(N2Cc3c(OCCCC(=O)N4CCC5(CC4)OCc4ccc(Cl)cc45)cccc3C2=O)C(=O)N1 (stereo not drawn) [Example 153] | 100 to 1000
Cc1ccc2c(c1)C1(CCN(CCCCOc3cccc4c3CN(C3CCC(=O)NC3=O)C4=O)CC1)OC2 (stereo not drawn) [Example 130, 3-(4-(4-(6-methyl-3H-spiro[isobenzofuran-1,4′-piperidine]-1′-)butoxy)-1-oxoisoindoline-2-)piperidine-2,6-dione] | < 100
